Assay results reported in patent US20090280098A1 (priority 2006, published 2009).
Where “and” joins values, the source holds several entries; their conditions need not be identical. Identical values can stand only once.

How the values were obtained:
[1] = cellobiose-added high sucrose food for 4 weeks; versus control rats; cited from earlier work
[2] = tested on: enzymatic activity for fatty acid synthesis; conditions: cellobiose-added feedstuff; cited from earlier work
[3] = tested on: enzymatic activity for fatty acid degradation; conditions: cellobiose-added feedstuff; cited from earlier work
[4] = tested on: cellooligosaccharide; format: cell-based

Row | Compound | body fat ratio [1] | levels of total cholesterol and neutral fat [1] | enzymatic activity for fatty acid synthesis [2] | enzymatic activity for fatty acid degradation [3] | Amount of produced Lactic acid [4]
1 | O=C[C@H](O)[C@@H](O)[C@H](O[C@@H]1O[C@H](CO)[C@@H](O)[C@H](O)[C@H]1O)[C@H](O)CO [cellobiose] | reduced | reduced | inhibited | increased | –
2 | Bifidobacterium | – | – | – | – | 1.01 mM and 1.08 mM
